{"source": "paper PMC10058894", "about": "“Bioactive C21 Steroidal Glycosides from Euphorbia kansui Promoted HepG2 Cell Apoptosis via the Degradation of ATP1A1 and Inhibited Macrophage Polarization under Co-Cultivation” (Molecules, 2023)", "key": {"Huh-7 cells [1]": {"test_system": "Huh-7 cells", "assay": "MTT assay, cell viability of Huh-7 cells", "assay_type": "cell-based", "details": "Homo sapiens, Huh-7, read-out: Huh-7 IC50", "excerpt": "(§1) 2. The anti-proliferation of compound 5 on Huh-7 cells\n(§2) We tested another hepatoma cell line (Huh-7) to validate effect of compound 5. L02 (normal hepatocytes), HepG2 and Hub-7 cells were used to discuss the effect of 5. […]\n(§3) of 5 on Huh-7 cell was (24.49±[…]) μM (Table S1). The morphology and apoptosis of the cells by reversed microscope and flow cytometry, respectively.\n(§4) Second, the expression and phosphorylation of ATP1A1 were detected by Western blot analysis in L02, HepG2 and Huh-7 cells. Compared with L02 group, the expression of ATP1A1 was higher in HepG2 and Huh-7 cells, but there was no significant difference in the phosphorylation of ATP1A1 (Figure […]\n(§5) At last, the effect of 5 on the expression and the phosphorylation of ATP1A1 in Huh-7 cells was […]\n(§6) the phosphorylation of ATP1A1. The result was consistent with that observed in HepG2 cells (Figure […]\n(§7) Table S1 Cell viability of Huh-7 cell treated by compound 5"}, "HepG2 cells [2]": {"test_system": "HepG2 cells", "assay": "Scratch test and colony formation assay", "assay_type": "cell-based", "details": "scratch 36 h, colony 7 days, 12.5 and 25 μmol", "experimental": "HepG2 cells (8 × 10^4 cells/well) were incubated in 24-well plates for 24 h. Cells were treated with a compound for 36 h after making a uniform straight from scratch with a 200 μL pipette tip. Cell motility was detected by measuring the wound closure distance after 36 h. Images were recorded using an inverted microscope (Olympus CK40, Shinjuku, Japan). HepG2 cells (600 cells/well) were incubated in 6-well plates and treated with the compound. One week later, visible colonies had formed. Then, the colonies were fixed with 4% polymethanol paraformaldehyde and stained with crystal violet (0.005%). The number of colonies was calculated by using a microscope."}, "HepG2 cells [3]": {"test_system": "HepG2 cells", "assay": "Fluorescence staining for apoptosis (Hoechst 33342, Annexin V/PI)", "assay_type": "cell-based", "experimental": "HepG2 cells (4 × 10^5 cells/well) were incubated in confocal dishes with DMEM for 24 h and then treated with compounds for 48 h. Then, the cells were treated with 0.1% Triton X-100 for 10 min and washed with PBS five times. Finally, the cells were dyed with anti-ATP1A1 at 4 °C overnight. Nuclear staining with DAPI (1 μg∙mL^−1) was added for 7 min in the dark, and the cells were washed. The stained images were captured under a laser scanning confocal microscope (Nikon A1 AIR MP+, Tokyo, Japan). HepG2 cells (5 × 10^5 cells/well) were incubated in 6-well plates in complete DMEM. Cells were treated with compounds for 24 h. Then, the cells were stained with Annexin V/PI for 30 min at 4 °C in the dark, and apoptosis analysis was carried out by laser scanning confocal microscopy."}, "[4]": {"test_system": "Bax, cleaved caspase 3, cleaved caspase 8, Bcl-2, LC3-B, p62, AKT/mTOR in HepG2 cells", "assay": "Western blot of apoptosis- and autophagy-related proteins in HepG2 cells", "assay_type": "cell-based", "details": "HepG2, 25 μmol∙L−1, 24 h", "experimental": "(§8) Protein samples were prepared using a RIPA lysis buffer. The concentration of the protein was analyzed using a nucleic acid and protein microanalyzer (Molecular Devices, San Jose, CA, USA). SDS–PAGE was performed to separate the proteins, which were then electrotransferred onto a PVDF membrane. The membrane was incubated with antibodies at 4 °C overnight. Next, the membrane was washed and incubated with an HRP-conjugated secondary antibody (Beyotime, BeiJing, China). Finally, signals were detected by the ECL method (Beyotime, BeiJing, China) and analyzed using ImageJ software."}, "[5]": {"test_system": "ATP1A1-related AKT and ERK signaling pathways", "assay": "Western blot of AKT and ERK phosphorylation in HepG2 cells", "assay_type": "cell-based", "details": "5 at 25 μmol∙L−1, 0~60 min, digitonin 10 nmol∙L−1", "experimental": "An Na^+/K^+-ATPase inhibitor (digitonin), AKT inhibitor (MK 2206), and ERK inhibitor (FR 180204) were purchased from Biotech (Beijing, China). These agents were stored at −20 °C, and the cells were preincubated with the inhibitor for 4 h prior to treatment with the compounds. Digitonin, MK 2206, and FR 180204 were used at concentrations of 10, 40, and 200 nmol/L, respectively.\nas §8"}, "Huh-7 cells [6]": {"test_system": "Huh-7 cells", "assay": "Apoptosis of Huh-7 cells by flow cytometry (Annexin V/PI)", "assay_type": "cell-based", "excerpt": "as §1, §2, §3, §4, §5, §6, §7\n(§9) Figure S2 Compound 5 inhibited the proliferation and the level of ATP1A1 protein in Huh-7 cells L5, low concentration of 5 (12.5 μmol-1 ); H5, high concentration of 5 (25 μmol-1). […] (B) Image of cell apoptosis in Huh-7 cells was detected by flow cytometry. The cells were double stained with Annexin V and PI. […] Data are expressed as the mean ± standard deviation (n=3). *p<0.05, **p<0.01, ***p<0.001 vs. the control group. […]"}, "ATP1A1 [7]": {"molecular_target": "T1, ATP1A1 (Homo sapiens, UniProt P05023)", "assay": "Western blot of ATP1A1 in Huh-7 cells", "assay_type": "cell-based", "design": "endogenous in cells", "excerpt": "as §1, §2, §3, §4, §5, §6, §7, §9"}, "ATP1A1 [8]": {"molecular_target": "T1, ATP1A1", "assay": "CETSA binding assay", "design": "we focused on the regulatory effect of 5 on ATP1A1 in HepG2 cells; endogenous in cells; host or cells: HepG2", "details": "50 μmoL−1, western blot", "experimental": "Figure 4 Compound 5 promoted the endocytosis and degradation of ATP1A1. (A) HepG2 cells were treated with 12.5 μmol∙L^−1 or 25 μmol∙L^−1 5 for 48 h, and the lysosomal co-localization assay was performed with a confocal laser. (B) Cells exposed to 25 μmol∙L^−1 5 for 12 h or 24 h were detected by fluorescence staining. (C) 5 is depicted in red, and the chains of Na^+, K^+-ATPase α/β/γ are represented by light blue, cyan-blue, and magenta, respectively. The crystallography, atomic coordinates, and structure factors have been deposited in the Protein Data Bank, www.pdb.org (accessed on 1 February 2023) (PDB ID code 3KDP). (D) The CETSA binding assay of ATP1A1 and β-actin in the presence or absence of 5 (50 μmoL^−1) at different temperatures was detected by western blot. The temperature-dependent melting curves and the apparent aggregation temperature were calculated by nonlinear regression. Values represent the mean ± SEM (N = 3 replicates)."}}}
{"compound": "C[C@H](O)[C@]1(O)CC[C@@]2(O)[C@]1(C)[C@H](OC(=O)/C=C/c1ccccc1)C[C@@H]1[C@@]3(C)CC[C@H](O[C@H]4C[C@H](O)[C@H](O)[C@@H](C)O4)CC3=CC[C@]12O", "note": "[Compound 5, Cynsaccatol L]", "values": [{"measurement": "IC50", "setting": "Huh-7 cells [1]", "value": "24.5 ± 2.33", "unit": "µM"}, {"measurement": "cell migration and proliferation (scratch and colony formation)", "setting": "HepG2 cells [2]", "value": "greatly inhibited"}, {"measurement": "nuclear changes (Hoechst 33342 staining)", "setting": "HepG2 cells [3]", "value": "significantly induce nuclear changes"}, {"measurement": "nuclear and cell membrane morphological changes (Annexin V/PI staining)", "setting": "HepG2 cells [3]; as low as 12.5 μmol∙L−1", "value": "significantly induce nuclear and cell membrane morphological changes"}, {"measurement": "Bax, cleaved caspase 3 and cleaved caspase 8 protein expression", "setting": "[4]", "value": "increased"}, {"measurement": "Bcl-2 protein expression", "setting": "[4]", "value": "decreased"}, {"measurement": "expression of LC3-B and p62", "setting": "[4]", "value": "upregulating"}, {"measurement": "phosphorylation of AKT and mTOR", "setting": "[4]", "value": "inhibited"}, {"measurement": "phosphorylation of AKT and ERK and expression of ATP1A1", "setting": "[5]", "value": "all decreased"}, {"measurement": "apoptosis of Huh-7 cells", "setting": "Huh-7 cells [6]", "value": "induce apoptosis of Huh-7 cells"}, {"measurement": "level of ATP1A1 in Huh-7", "setting": "ATP1A1 [7]", "value": "reduced"}, {"measurement": "denaturation temperature of ATP1A1 (CETSA)", "setting": "ATP1A1 [8]", "value": "higher than that of the control group"}]}
